Test results as given in US10111881B2 (priority 2016, dated 2018).
Entries after “also recorded” stand apart in the source; their conditions may differ. Like-named read-outs stand apart in the source and are kept apart here.

Experiments:
EBOV [1] = assay: microbe, parasite or virus in culture; type: cell-based, Zaire Ebolavirus (Mayinga strain); conditions: read-out: Activity in macrophages IC50
Cathepsin = Cathepsin cleavage of GP
EEA1-positive vesicles = type: cell-based, human
[2] = tested on: Baby hamster kidney fibroblasts (BHK) cells; assay: Acridine orange assay for acidification blockers; type: cell-based
NPC1 C-loop = molecular target: T1, NPC1 C-loop (Homo sapiens, UniProt O15118); assay: NPC1 C-loop binding
T1 construct: C-loop
T1 sequence (O15118 372-620 limits assumed): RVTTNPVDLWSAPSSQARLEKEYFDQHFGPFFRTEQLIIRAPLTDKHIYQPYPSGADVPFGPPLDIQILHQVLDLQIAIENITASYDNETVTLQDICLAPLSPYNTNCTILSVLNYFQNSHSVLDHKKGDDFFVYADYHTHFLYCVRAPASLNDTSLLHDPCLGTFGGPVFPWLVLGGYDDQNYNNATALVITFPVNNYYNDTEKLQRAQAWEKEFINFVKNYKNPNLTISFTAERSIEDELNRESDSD

EBOV [3] = assay: organism not typed; type: cell-based, Zaire Ebolavirus (Mayinga strain)
EBOV [4] = type: cell-based, Zaire Ebolavirus (Mayinga strain)
HeLa cells [5] = type: cell-based, human; conditions: for Dextran Uptake: 50 μM
MARV = assay: microbe, parasite or virus in culture; type: cell-based, Marburgvirus (Musoke strain)
HeLa cells [6] = type: cell-based, human; conditions: for Transferrin uptake: 50 μM
LAMP1-positive vesicles = type: cell-based, human

## CC(C)(CS(=O)(=O)[O-])NC(=O)CC[N+](C)(C)CCO [MLS000554255]
EBOV [1]
  IC50: 6 µM
Cathepsin
  Cathepsin clevage: 0
EEA1-positive vesicles
  Effect on EEA1: +
  increase of colocalization of VLPs with EEA1-positive vesicles: 83%
[2]
  Acidification Block: −
NPC1 C-loop
  NPC1 C-loop binding: 0
EBOV [3]
  Curve Class (EBOV): 1.5
  EBOV (curve class): 1.5
EBOV [3]; read-out: EBOV HeLa IC50
  IC50: 6.8 µM
EBOV [3]; read-out: IC-50 (EBOV)
  IC50: 6.84 µM
EBOV [4]
  Surface interaction: 0
  Uninfected cell number: +
  number of cells without virus bound: increased the number of cells without virus bound
HeLa cells [5]
  Dextran Uptake: 0
MARV
  Curve class (MARV): 1.3
  MARV (Curve class): 1.3
MARV; read-out: IC-50 (MARV)
  IC50: 6.39 µM
MARV; read-out: MARV HeLa IC50
  IC50: 6.4 µM
HeLa cells [6]
  effect on transferrin uptake: do not inhibit transferrin uptake
  Transferrin uptake: 0
LAMP1-positive vesicles
  Effect on LAMP1: −
  reduction of number of VLPs present in LAMP1-positive vesicles: 33%

## Cc1nn2c(NCCCN(C)C)c3c(nc2c1-c1ccccc1)CCCC3 [MLS000762907]
EBOV [1]
  IC50: 23.4 µM
Cathepsin
  Cathepsin clevage: 0
EEA1-positive vesicles
  Effect on EEA1: 0
  VLP colocalization with EEA1: colocalized with EEA1 positive vesicles normally; also recorded: no effect
[2]
  Acidification Block: +
NPC1 C-loop
  NPC1 C-loop binding: 0
EBOV [3]
  Curve Class (EBOV): 1.3
  EBOV (curve class): 1.3
EBOV [3]; read-out: EBOV HeLa IC50
  IC50: 3.2 µM
EBOV [3]; read-out: IC-50 (EBOV)
  IC50: 3.19 µM
EBOV [4]
  Surface interaction: 0
  Uninfected cell number: 0
  virus particle binding to cell surface: did not affect
HeLa cells [5]
  effect on macropinocytic uptake of dextran: not of dextran; also recorded: did not affect
  Dextran Uptake: 0
MARV
  Curve class (MARV): 1.3
  MARV (Curve class): 1.3
MARV; read-out: IC-50 (MARV)
  IC50: 12.5 µM
MARV; read-out: MARV HeLa IC50
  IC50: 12.5 µM
HeLa cells [6]
  effect on transferrin uptake: inhibited transferrin uptake; also recorded: reduced uptake of transferrin; also recorded: blocked uptake of transferrin
  Transferrin uptake: −
LAMP1-positive vesicles
  Effect on LAMP1: 0
  VLP colocalization with LAMP1: no effect

## Cc1cc(Cl)cc(C)c1OCCn1ccnc1 [MLS001196083]
EBOV [3]; read-out: IC-50 (EBOV)
  IC50: 6.19 µM
MARV; read-out: IC-50 (MARV)
  IC50: 2.06 µM

## CN(C)CCCNC(=S)N1CCN(c2nc(-c3ccccc3)cs2)CC1 [MLS001207131]
EBOV [3]
  Curve Class (EBOV): 1.3
EBOV [3]; read-out: IC-50 (EBOV)
  IC50: 25.2 µM
MARV
  Curve class (MARV): 1.2
MARV; read-out: IC-50 (MARV)
  IC50: 25.3 µM

## COc1ccc(Nc2cc(C)nc3ccc(OC)cc23)cc1 [MLS001209453]
EBOV [3]
  Curve Class (EBOV): 1.3
EBOV [3]; read-out: IC-50 (EBOV)
  IC50: 3.4 µM
MARV
  Curve class (MARV): 1.2
MARV; read-out: IC-50 (MARV)
  IC50: 12.5 µM

## Cc1ccccc1NC(=O)CSc1ccc(-c2ccccn2)nn1 [MLS001237534]
EBOV [3]
  Curve Class (EBOV): 4
MARV; read-out: IC-50 (MARV)
  IC50: 24.8 µM

## CN(C)CCCN(C(=O)c1ccc2ccccc2c1)c1nc2cc3c(cc2s1)OCO3.Cl [MLS001239325]
EBOV [3]
  Curve Class (EBOV): 1.7
EBOV [3]; read-out: IC-50 (EBOV)
  IC50: 1.55 µM
MARV
  Curve class (MARV): 1.3
MARV; read-out: IC-50 (MARV)
  IC50: 13.3 µM

## CCOC(=O)N1CCN(S(=O)(=O)c2ccc(C(=O)N(CCCN(C)C)c3nc4c(C)c(C)ccc4s3)cc2)CC1.Cl [MLS001239358]
EBOV [3]
  Curve Class (EBOV): 1.6
EBOV [3]; read-out: IC-50 (EBOV)
  IC50: 0.609 µM
MARV; read-out: IC-50 (MARV)
  IC50: 13 µM

## C=C1C(=O)c2sccc2C(c2ccc(OC)c(OC)c2)C1COC(C)=O (stereo not shown) [MLS002702500]
EBOV [3]; read-out: IC-50 (EBOV)
  IC50: 5.93 µM
MARV
  Curve class (MARV): 1.3
MARV; read-out: IC-50 (MARV)
  IC50: 2.06 µM
